{
  "source": "patent US8802639B2",
  "about": "“RNA interference modulators of hedgehog signaling and uses thereof” (Curis, Inc., priority 2004, dated 2014)",
  "key": {"[1]": {"tested_on": "Sp-C expression in embryonic mouse lungs", "experiment": "Sp-C (surfactant type C) expression in embryonic mouse lung explants (Q-RT-PCR)", "assay_type": "cell-based", "conditions": "embryonic lung cultures (FIG. 10, FIG. 11)", "protocol": "Surfactant production is a measure of lung maturity, and the inability to produce surfactant is the primary cause of adult and infant respiratory distress syndrome. The increase in surfactant type C production was assessed by measuring expression of Sp-C, which encodes a protein critical for the production of surfactant.\nMETHODS: E13.5 old embryonic mouse lungs were dissected. Explants were grown submerged in lung explant medium (DMEM based, additives optimized for the culture of mouse lungs) for 50 hrs. They were then processed for Q-RT-PCR. Briefly, total ribonucleic acid (RNA) is isolated from the tissue and subjected to reverse transcription to generate DNA. This DNA is amplified in a polymerase chain reaction using gene-specific primers as well as primers for the ubiquitously expressed housekeeping gene GAPDH. The two primer sets are labeled with different fluorophores, allowing for quantification of both signals in the same reaction tube in a real-time PCR machine (TaqMan). When calculating the expression level of Sp-C, the specific signal is normalized to the GAPDH signal, which serves as a measure of the total DNA used in the reaction.\nSteroids are known to increase lung maturation and surfactant production in animals, including humans."}, "[2]": {"biological_target": "Sonic hedgehog (Shh), functional hedgehog protein secreted by human cancer cell lines (human) (UniProt Q15465)", "sequence (Q15465 24-197 limits assumed)": "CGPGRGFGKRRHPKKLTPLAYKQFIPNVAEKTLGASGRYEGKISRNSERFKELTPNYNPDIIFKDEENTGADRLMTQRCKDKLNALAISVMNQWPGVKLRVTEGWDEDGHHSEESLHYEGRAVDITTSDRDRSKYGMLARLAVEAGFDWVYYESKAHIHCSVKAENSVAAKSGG", "experiment": "cell-based or functional assay"}, "human Shh": {"tested_on": "human Shh", "experiment": "siRNA inhibition of Shh expression in transfected HEK-293 cells (immunostaining)", "assay_type": "cell-based", "conditions": "for inhibition of Shh expression: 0.4 μg phShh plasmid + 20, 100 or 500 pmole siRNA, about 68 hours, anti-Shh staining (FIG. 2)", "protocol": "To test the effectiveness of the three siRNA antagonists, a confluent plate of HEK-293 cells were splited 1:3 and plated onto a 24-well tissue culture plate. The final density of cells was about 14,000 cells/well. Lipofectamine infection was carried out according to manufacturer's instruction. Specifically, 0.4 μg phShh^FL (a human Shh-encoding plasmid “pcDNA3.1-hShh”) and either 0, 20, 100, or 500 pmole of each annealed Shh siRNA antagonist were mixed in 25 μL of serum-free DMEM (no Pen./Strep.) with 4 μL of “Plus Reagent” for 15 minutes. At the same time, 1 μL of Lipofectamine was mixed in 25 μL of serum-free DMEM (no Pen./Strep.) with 4 μL of “Plus Reagent” for 15 minutes. At the end of the incubation, the two mixtures were combined to form complexes for 15 minutes. For each well of HEK-293 cells, the medium was changed to 200 μL of serum-free DMEM (no Pen./Strp.), and the formed complexes were then added to the respective test wells. After 3 hours of incubation at 37° C. in a 5% CO2 tissue culture incubator, 250 μL of DMEM (no Pen./Strep.) with 20% FBS were added to each well. The plate of cells were then returned to the incubator. After about 68 hours of incubation, cells in each well were fixed in 4% PFA/PAS, and stained with 1:200 dilution of rabbit anti-Shh antibody and Cy3-labeled anti-rabbit secondary antibody. […] Therefore, #1 siRNA was used for future experiments.\n(§1) Next, the specificity of the inhibitory effects #1 Shh siRNA antagonist was tested against two other related Hh proteins, Ihh and Dhh. Specifically, the same HEK-293 cells were splited and seeded to a final density of about 14,000 cells/well in a 24-well tissue culture plate. The same Lipofectamine transfection as described above were carried out for each of the following combinations: • 0.4 μg of pcDNA3.1-hShh+0, 50, or 250 pmoles of siRNA #1; • 0.4 μg of pcDNA3.1-hIhh+0, 50, or 250 pmoles of siRNA #1; • 0.4 μg of pcDNA3.1-hDhh+0, 50, or 250 pmoles of siRNA #1; and, • 0.4 μg of pcDNA3.1-hShh+250 pmoles of siRNA #1 reverse strand only control.\n(§2) After 2 hours of incubation with each of the complexes, the medium in each transfection well was replaced with 1 mL of fresh DMEM (no Pen./Strep.)+10% FBS, for the purpose of getting healthier cells at the end of the experiment. After 2 more days of incubation, all cells were fixed as described above, and stained with H-160 pan-Hh rabbit polyclonal antibody (Cat. No. sc-9024, Santa Cruz Biotechnology, CA) and Cy3-labeled anti-rabbit secondary antibody."}, "Ihh (pcDNA3.1-hIhh)": {"tested_on": "Ihh (pcDNA3.1-hIhh)", "experiment": "siRNA specificity test, Ihh expression in transfected HEK-293 cells", "assay_type": "cell-based, human", "conditions": "pcDNA3.1-hIhh + 50 or 250 pmoles siRNA (FIG. 3)", "protocol": "as §1, §2"}, "Dhh (pcDNA3.1-hDhh)": {"tested_on": "Dhh (pcDNA3.1-hDhh)", "experiment": "siRNA specificity test, Dhh expression in transfected HEK-293 cells", "assay_type": "cell-based, human", "conditions": "pcDNA3.1-hDhh + 50 or 250 pmoles siRNA (FIG. 3)", "protocol": "as §1, §2"}},
  "note": "{P} = phosphate",
  "data": [
    {"compound": "C[C@]12CCC(=O)C=C1CC[C@@H]1[C@@H]2[C@@H](O)C[C@@]2(C)[C@H]1CC[C@]2(O)C(=O)CO", "note": "[hydrocortisone]", "values": [
      {"measurement": "Sp-C expression", "setting": "[1]", "result": "increase in Sp-C expression"}
    ]},
    {"compound": "Shh blocking antibody (5E1)", "values": [
      {"measurement": "inhibition of luciferase expression in S12 cells (gli-Luc assay, S12/RT-4 co-cultures), IC50", "setting": "[2]", "result": 0.085, "unit": "µg/mL"},
      {"measurement": "inhibition of luciferase expression in S12 cells (gli-Luc assay, S12/RT-4 co-cultures), IC90", "setting": "[2]", "result": 0.5, "unit": "µg/mL"}
    ]},
    {"compound": "siRNA #1: siRNA duplex against human Shh; sense 5′-P cga gau guc ugc ugc uag ucc (SEQ ID NO: 5), antisense SEQ ID NO: 6 (sense CGAGAUGUCUGCUGCUAGUCC; antisense ACUAGCAGCAGACAUCUCGCC; RNA, 5' {P}, backbone not given here)", "values": [
      {"measurement": "inhibition of Shh expression", "setting": "human Shh", "result": "nearly completely inhibits Shh expression"},
      {"measurement": "specificity for Shh as compared to Ihh and Dhh", "setting": "human Shh; 50 or 250 pmoles siRNA (FIG. 3)", "result": "very specific for Shh"},
      {"measurement": "inhibition of expression of human Shh", "setting": "human Shh; pcDNA3.1-hShh + 50 pmoles siRNA, H-160 pan-Hh staining (FIG. 3)", "result": "almost completely inhibited expression of human Shh"},
      {"measurement": "inhibition of Ihh expression", "setting": "Ihh (pcDNA3.1-hIhh)", "result": "did not obviously inhibit Ihh or Dhh expression"},
      {"measurement": "inhibition of Dhh expression", "setting": "Dhh (pcDNA3.1-hDhh)", "result": "did not obviously inhibit Ihh or Dhh expression"}
    ]},
    {"compound": "siRNA #4: siRNA duplex against human Shh; sense 5′-P cag agu agc ccu aac cgc ucc (SEQ ID NO: 7), antisense SEQ ID NO: 8 (sense CAGAGUAGCCCUAACCGCUCC; antisense AGCGGUUAGGGCUACUCUGCC; RNA, 5' {P}, backbone not given here)", "values": [
      {"measurement": "inhibition of Shh expression", "setting": "human Shh", "result": "less pronounced"}
    ]},
    {"compound": "siRNA #5: siRNA duplex against human Shh; sense 5′-P cgg uca agu cca gcu gaa gcc (SEQ ID NO: 9), antisense SEQ ID NO: 10 (sense CGGUCAAGUCCAGCUGAAGCC; antisense CUUCAGCUGGACUUGACCGCC; RNA, 5' {P}, backbone not given here)", "values": [
      {"measurement": "inhibition of Shh expression", "setting": "human Shh", "result": "slightly less effective than #1"}
    ]}
  ]
}
